SMILES strings stand for the structures.

Here are results for 18 compounds from patent EP4038059B1, “SUBSTITUTED CARBAZOLE COMPOUNDS” (Bristol-Myers Squibb Company, priority 2019, dated 2021).

What all share (type): cell-based
One experiment addresses T1, human TLR7 (Homo sapiens, UniProt Q9NYK1).
T1 construct: host or cells: HEK-Blue cells
T1 sequence (Q9NYK1 27-1049): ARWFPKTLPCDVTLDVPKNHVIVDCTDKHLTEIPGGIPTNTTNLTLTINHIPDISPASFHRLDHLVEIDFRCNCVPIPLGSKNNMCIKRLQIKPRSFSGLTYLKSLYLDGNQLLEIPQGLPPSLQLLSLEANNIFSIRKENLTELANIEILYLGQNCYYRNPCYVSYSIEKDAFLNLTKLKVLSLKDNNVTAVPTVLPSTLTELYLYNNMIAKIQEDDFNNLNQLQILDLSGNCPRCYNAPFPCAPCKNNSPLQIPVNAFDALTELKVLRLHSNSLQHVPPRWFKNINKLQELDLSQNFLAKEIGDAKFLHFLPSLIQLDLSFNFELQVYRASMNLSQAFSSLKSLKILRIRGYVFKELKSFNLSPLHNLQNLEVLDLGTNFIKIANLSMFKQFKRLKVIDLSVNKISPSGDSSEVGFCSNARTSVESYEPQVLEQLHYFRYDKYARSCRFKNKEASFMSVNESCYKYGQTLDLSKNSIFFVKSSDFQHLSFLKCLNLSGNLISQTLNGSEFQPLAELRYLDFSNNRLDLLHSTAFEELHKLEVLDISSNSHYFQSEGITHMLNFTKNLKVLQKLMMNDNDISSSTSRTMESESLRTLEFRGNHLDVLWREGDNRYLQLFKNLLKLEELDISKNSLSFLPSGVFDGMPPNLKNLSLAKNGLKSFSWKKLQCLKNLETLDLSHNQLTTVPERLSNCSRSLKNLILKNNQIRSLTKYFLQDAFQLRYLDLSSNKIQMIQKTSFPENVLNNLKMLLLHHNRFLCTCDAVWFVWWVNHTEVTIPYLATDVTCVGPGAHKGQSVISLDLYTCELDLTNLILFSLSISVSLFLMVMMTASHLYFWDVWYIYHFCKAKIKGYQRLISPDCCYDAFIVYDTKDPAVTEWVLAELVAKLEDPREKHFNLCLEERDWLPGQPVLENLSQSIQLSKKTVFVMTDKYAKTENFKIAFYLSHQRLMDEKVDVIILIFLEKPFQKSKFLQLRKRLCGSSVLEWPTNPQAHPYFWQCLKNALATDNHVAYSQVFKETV
The experiment is described as follows: TLR7 inhibition reporter assay (HEK-Blue SEAP). The note with it: HEK-Blue cells overexpressing human TLR7, stimulated with gardiquimod 7.5 µM, 22 h incubation. The method, then:
(§1) HEK-Blue™-cells (Invivogen) overexpressing human TLR7, TLR8 or TLR9 receptors were used for screening inhibitors of these receptors using an inducible SEAP (secreted embryonic alkaline phosphatase) reporter gene under the control of the IFN-β minimal promoter fused to five NF-κB and AP-1-binding sites. Briefly, cells are seeded into Greiner 384 well plates (15000 cells per well for TLR7, 20,000 for TLR8 and 25,000 for TLR9) and then treated with test compounds in DMSO to yield a final dose response concentration range of 0.05 nM - 50 µM. After a 30 minute compound pre-treatment at room temperature, the cells are then stimulated with a TLR7 ligand (gardiquimod at a final concentration of 7.5 µM), TLR8 ligand (R848 at a final concentration of 15.9 µM) or TLR9 ligand (ODN2006 at a final concentration of 5 nM) to activate NF-κB and AP-1 which induce the production of SEAP. After a 22 h incubation at 37°C, 5% CO2, SEAP levels are determined with the addition of HEK-Blue™ Detection reagent (Invivogen), a cell culture medium that allows for detection of SEAP, according to manufacturer's specifications. The percent inhibition is determined as the % reduction in the HEK-Blue signal present in wells treated with agonist plus DMSO alone compared to wells treated with a known inhibitor.
In general terms: A reporter such as luciferase makes a cellular process visible.

In another experiment the target is T2, human TLR8 (Homo sapiens, UniProt Q9NR97).
T2 construct: host or cells: HEK-Blue cells
T2 sequence (Q9NR97 27-1041): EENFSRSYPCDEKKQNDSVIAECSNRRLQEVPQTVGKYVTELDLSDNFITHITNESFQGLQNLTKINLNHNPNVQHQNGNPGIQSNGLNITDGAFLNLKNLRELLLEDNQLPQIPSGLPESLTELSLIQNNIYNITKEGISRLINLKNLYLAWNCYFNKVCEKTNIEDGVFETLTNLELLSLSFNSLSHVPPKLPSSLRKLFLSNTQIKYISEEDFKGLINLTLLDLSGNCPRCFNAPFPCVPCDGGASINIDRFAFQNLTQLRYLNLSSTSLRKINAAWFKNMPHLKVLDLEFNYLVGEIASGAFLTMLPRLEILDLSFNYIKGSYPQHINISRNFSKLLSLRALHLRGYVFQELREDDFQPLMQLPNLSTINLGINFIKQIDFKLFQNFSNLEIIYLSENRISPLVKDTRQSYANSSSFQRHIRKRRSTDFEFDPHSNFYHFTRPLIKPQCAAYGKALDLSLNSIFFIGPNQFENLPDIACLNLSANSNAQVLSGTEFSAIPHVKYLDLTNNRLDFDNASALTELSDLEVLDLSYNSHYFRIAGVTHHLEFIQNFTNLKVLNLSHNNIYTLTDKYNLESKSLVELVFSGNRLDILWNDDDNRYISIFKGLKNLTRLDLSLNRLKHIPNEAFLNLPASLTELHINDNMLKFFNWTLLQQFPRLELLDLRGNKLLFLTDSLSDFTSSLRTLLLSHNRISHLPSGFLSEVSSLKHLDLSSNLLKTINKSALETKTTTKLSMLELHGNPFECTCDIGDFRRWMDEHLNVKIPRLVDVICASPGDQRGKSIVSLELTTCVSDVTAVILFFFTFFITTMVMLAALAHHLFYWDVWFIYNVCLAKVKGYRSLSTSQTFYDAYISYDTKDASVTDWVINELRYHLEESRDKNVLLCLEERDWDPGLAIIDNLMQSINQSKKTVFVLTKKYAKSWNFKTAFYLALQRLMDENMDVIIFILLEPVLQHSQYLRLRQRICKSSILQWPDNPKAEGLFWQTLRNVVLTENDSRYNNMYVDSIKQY
The experiment is described as follows: TLR8 inhibition reporter assay (HEK-Blue SEAP). To be noted: HEK-Blue cells overexpressing human TLR8, stimulated with R848 15.9 µM, 22 h incubation. On the procedure: as §1

In a further experiment the target is T3, human TLR9 (Homo sapiens, UniProt Q9NR96).
T3 construct: host or cells: HEK-Blue cells
T3 sequence (Q9NR96 26-1032): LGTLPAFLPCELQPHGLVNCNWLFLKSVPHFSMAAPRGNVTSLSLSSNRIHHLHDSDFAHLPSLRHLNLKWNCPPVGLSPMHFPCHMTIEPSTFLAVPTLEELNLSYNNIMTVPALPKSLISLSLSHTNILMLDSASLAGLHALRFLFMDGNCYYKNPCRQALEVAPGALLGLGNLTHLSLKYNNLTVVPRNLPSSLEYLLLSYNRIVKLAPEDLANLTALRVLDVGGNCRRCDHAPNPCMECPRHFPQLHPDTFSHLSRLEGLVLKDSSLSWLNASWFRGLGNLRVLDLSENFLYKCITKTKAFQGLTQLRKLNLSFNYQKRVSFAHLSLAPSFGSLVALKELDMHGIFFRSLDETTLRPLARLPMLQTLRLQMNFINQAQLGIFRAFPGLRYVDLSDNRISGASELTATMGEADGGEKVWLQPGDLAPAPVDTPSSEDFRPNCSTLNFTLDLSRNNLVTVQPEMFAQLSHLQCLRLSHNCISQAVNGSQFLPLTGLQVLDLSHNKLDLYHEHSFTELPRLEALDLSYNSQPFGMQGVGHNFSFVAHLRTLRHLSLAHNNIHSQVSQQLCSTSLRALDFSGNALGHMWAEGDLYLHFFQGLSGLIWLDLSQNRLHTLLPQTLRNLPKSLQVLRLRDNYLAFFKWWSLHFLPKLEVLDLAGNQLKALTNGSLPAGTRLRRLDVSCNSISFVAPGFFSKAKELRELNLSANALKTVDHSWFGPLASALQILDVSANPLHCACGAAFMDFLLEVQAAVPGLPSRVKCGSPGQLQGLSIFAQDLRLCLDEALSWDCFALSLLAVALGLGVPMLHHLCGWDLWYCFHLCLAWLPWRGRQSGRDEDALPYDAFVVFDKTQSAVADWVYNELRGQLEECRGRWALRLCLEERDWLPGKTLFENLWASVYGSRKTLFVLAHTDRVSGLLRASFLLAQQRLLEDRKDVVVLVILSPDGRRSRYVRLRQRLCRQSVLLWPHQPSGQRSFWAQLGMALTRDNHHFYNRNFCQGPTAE
The experiment is described as follows: TLR9 inhibition reporter assay (HEK-Blue SEAP). The note with it: HEK-Blue cells overexpressing human TLR9, stimulated with ODN2006 5 nM, 22 h incubation. On the procedure: as §1

As usually defined, the IC50 is the concentration at which inhibition is half-maximal. A higher IC50 goes with weaker potency in that assay. On to `COc1cc(-c2cc(C)c3c(c2)[nH]c2ccc(C4CCN(CC(C)(C)O)CC4)cc23)cn2ncnc12` [Example 20], for which the half-inhibitory concentration (IC50) against human TLR7 was found to be 1.9 nM; on human TLR8, 2.1 nM; against human TLR9, 224 nM.
Taken in the same sequence, the figures for `COc1cc(-c2cc3[nH]c4ccc(C5CN(CC#N)C5)cc4c3c(C)c2C)cn2ncnc12` [Example 39] were 11 nM, 4 nM and 1240 nM.
Taken in the same sequence, the figures for `COc1cc(-c2cc3[nH]c4ccc(C5CCCN(C6COC6)C5)cc4c3c(C)c2C)cn2ncnc12` (stereo not drawn) [Example 33] were 15.5 nM, 2.2 nM and 1230 nM.
Take `COc1cc(-c2cc3[nH]c4ccc(C5CCCN(CCS(C)(=O)=O)C5)cc4c3c(C)c2C)cn2ncnc12` (stereo not drawn) [Example 32]: the 50% inhibitory concentration (IC50) on human TLR7 is 9.4 nM; on human TLR8, 2 nM; against human TLR9, 802 nM.
Consider `COc1cc(-c2cc3[nH]c4ccc(C5CCN(CC(C)(C)O)CC5)cc4c3cc2C)cn2ncnc12` [Example 23], for which the results for the IC50 at human TLR7, against human TLR8 and on human TLR9 were 4.1 nM, 0.9 nM and 259 nM, respectively.
For the compound `Cc1cc(-c2cc(C)c3c(c2)[nH]c2ccc(C4CCNCC4)cc23)cc(C)n1` [Example 11], the concentration for half-maximal inhibition (IC50) against human TLR7 was found to be 2.4 nM; against human TLR8, 21 nM; against human TLR9, 40 nM.
As to `c1cncc(-c2ccc3c(c2)[nH]c2ccc(C4CCNCC4)cc23)c1` [Example 4, 6-(piperidin-4-yl)-2-(pyridin-3-yl)-9H-carbazole], the values for the half-inhibitory concentration (IC50) on human TLR7, on human TLR8 and against human TLR9 were 1470 nM, 1800 nM and 541 nM, respectively.
Take `COc1cc(-c2cc3[nH]c4ccc(C5CCCN(C6CCOCC6)C5)cc4c3c(C)c2C)cn2ncnc12` (stereo not drawn) [Example 28, 2-(8-methoxy-[1,2,4]triazolo[1,5-a]pyridin-6-yl)-3,4-dimethyl-6-(1-(tetrahydro-2H-pyran-4-yl)piperidin-3-yl)-9H-carbazole]: the IC50 against human TLR7 was 7.8 nM; against human TLR8, 0.7 nM; against human TLR9 it was 523 nM.
As to `COc1cc(-c2cc3[nH]c4ccc(C5CCCN(CC(C)(C)O)C5)cc4c3c(C)c2C)cn2ncnc12` (stereo not drawn) [Example 31], the results for the IC50 on human TLR7, at human TLR8 and at human TLR9 were 8.1 nM, 1.2 nM and 587 nM, respectively.
The corresponding values for `COc1cc(-c2cc3[nH]c4ccc(C5CN(C6COC6)C5)cc4c3c(C)c2C)cn2ncnc12` [Example 36] are 5.6 nM, 1.8 nM and 861 nM.
For `COc1cc(-c2cc3[nH]c4ccc(C5CCCN(CC#N)C5)cc4c3c(C)c2C)cn2ncnc12` (stereo not drawn) [Example 34], the IC50 against human TLR7 was determined as 1.3 nM; on human TLR8, 2.5 nM; on human TLR9 it was 321 nM.
For the compound `COc1cc(-c2cc3[nH]c4ccc(C5CCN(CC(C)(C)O)CC5)cc4c3c(C)c2C)cn2ncnc12` [Example 25], the figures for the concentration for half-maximal inhibition (IC50) at human TLR7, against human TLR8 and against human TLR9 were 1.8 nM, 0.4 nM and 264 nM, respectively.
Turning to `COc1cc(-c2cc3[nH]c4ccc(C5CN(C(=O)CN(C)C)C5)cc4c3c(C)c2C)cn2ncnc12` [Example 35], the 50% inhibitory concentration (IC50) on human TLR7 is 4.5 nM; against human TLR8, 3.3 nM; against human TLR9, 845 nM.
Taken in the same sequence, the figures for `CC(=O)Nc1ccc2c(c1)[nH]c1ccc(C3CCNCC3)cc12` [Example 7, N-(6-(piperidin-4-yl)-9H-carbazol-2-yl)acetamide] were over 3130 nM, over 3130 nM and 1060 nM.
In the case of `COc1cc(-c2cc3[nH]c4ccc(C5CCNCC5)cc4c3cc2C)cn2ncnc12` [Example 17], the results for the IC50 against human TLR7, on human TLR8 and on human TLR9 were 1.9 nM, 1.4 nM and 108 nM, respectively.
The corresponding values for `Cc1cc(-c2cc(C)c3c(c2)[nH]c2ccc(C4CCN(CC(C)(C)O)CC4)cc23)cc(C)n1` [Example 21] are 1.5 nM, 12 nM and 60 nM.
The corresponding values for `COc1cc(-c2cc(C)c3c(c2)[nH]c2ccc(C4CCNCC4)cc23)cn2ncnc12` [Example 12] are 1.4 nM, 6.8 nM and 153 nM.
The corresponding values for `Cc1cc(-c2cc(C)c3ncnn3c2)cc2[nH]c3ccc(C4CCNCC4)cc3c12` [Example 13] are 0.7 nM, 6.8 nM and 349 nM.
